# Test results: ChEMBL document CHEMBL2331514, “Structure-based design and synthesis of novel pseudosaccharine derivatives as antiproliferative agents and kinase inhibitors” (Eur J Med Chem, 2013)
# What was measured:
# [1] = Partition coefficient, log P of the compound; format: physicochemical; settings: octanol/water
# [2] = test system: Hs-578T; experiment: Cytotoxicity against human Hs578T cells assessed as growth inhibition at 10 uM after 48 hrs by SRB assay; format: functional; settings: read-out: GI
# [3] = test system: BT-549; experiment: Cytotoxicity against human BT549 cells assessed as growth inhibition at 10 uM after 48 hrs by SRB assay; format: functional; settings: BT-549, 48 h, read-out: GI
# [4] = test system: MDA-MB-231; experiment: Cytotoxicity against human MDA-MB-231 cells assessed as growth inhibition at 10 uM after 48 hrs by SRB assay; format: functional; settings: MDA-MB-231, 48 h, read-out: GI
# [5] = test system: MCF7; experiment: Cytotoxicity against human MCF7 cells assessed as growth inhibition at 10 uM after 48 hrs by SRB assay; format: functional; settings: MCF7, 48 h, read-out: GI
# [6] = test system: PC-3; experiment: Cytotoxicity against human PC3 cells assessed as growth inhibition at 10 uM after 48 hrs by SRB assay; format: functional; settings: PC-3, 48 h, read-out: GI
# [7] = test system: UO-31; experiment: Cytotoxicity against human UO31 cells assessed as growth inhibition at 10 uM after 48 hrs by SRB assay; format: functional; settings: UO-31, 48 h, read-out: GI
# [8] = test system: TK-10; experiment: Cytotoxicity against human TK10 cells assessed as growth inhibition at 10 uM after 48 hrs by SRB assay; format: functional; settings: TK-10, 48 h, read-out: GI
# [9] = test system: RXF 393; experiment: Cytotoxicity against human RXF393 cells assessed as growth inhibition at 10 uM after 48 hrs by SRB assay; format: functional; settings: RXF 393, 48 h, read-out: GI
# [10] = test system: CAKI-1; experiment: Cytotoxicity against human Caki1 cells assessed as growth inhibition at 10 uM after 48 hrs by SRB assay; format: functional; settings: CAKI-1, 48 h, read-out: GI
# [11] = test system: Malme-3M; experiment: Cytotoxicity against human MALME-3M cells assessed as growth inhibition at 10 uM after 48 hrs by SRB assay; format: functional; settings: read-out: GI
# [12] = test system: LOX IMVI; experiment: Cytotoxicity against human LOXIMVI cells assessed as growth inhibition at 10 uM after 48 hrs by SRB assay; format: functional; settings: read-out: GI
# [13] = test system: SF-539; experiment: Cytotoxicity against human SF539 cells assessed as growth inhibition at 10 uM after 48 hrs by SRB assay; format: functional; settings: SF-539, 48 h, read-out: GI
# [14] = test system: SF-295; experiment: Cytotoxicity against human SF295 cells assessed as growth inhibition at 10 uM after 48 hrs by SRB assay; format: functional; settings: SF-295, 48 h, read-out: GI
# [15] = test system: KM12; experiment: Cytotoxicity against human KM12 cells assessed as growth inhibition at 10 uM after 48 hrs by SRB assay; format: functional; settings: KM12, 48 h, read-out: GI
# [16] = test system: HCC 2998; experiment: Cytotoxicity against human HCC2998 cells assessed as growth inhibition at 10 uM after 48 hrs by SRB assay; format: functional; settings: HCC 2998, 48 h, read-out: GI
# [17] = test system: NCI-H322M; experiment: Cytotoxicity against human NCI-H322M cells assessed as growth inhibition at 10 uM after 48 hrs by SRB assay; format: functional; settings: read-out: GI
# [18] = test system: NCI-H23; experiment: Cytotoxicity against human NCI-H23 cells assessed as growth inhibition at 10 uM after 48 hrs by SRB assay; format: functional; settings: NCI-H23, 48 h, read-out: GI
# [19] = test system: A549; experiment: Cytotoxicity against human A549/ATCC cells assessed as growth inhibition at 10 uM after 48 hrs by SRB assay; format: functional; settings: A549, 48 h, read-out: GI
# [20] = test system: RPMI-8226; experiment: Cytotoxicity against human RPMI8226 cells assessed as growth inhibition at 10 uM after 48 hrs by SRB assay; format: functional; settings: RPMI-8226, 48 h, read-out: GI
# [21] = test system: HL-60(TB); experiment: Cytotoxicity against human HL-60(TB) cells assessed as growth inhibition at 10 uM after 48 hrs by SRB assay; format: functional; settings: HL-60, 48 h, read-out: GI
# [22] = test system: MCF7; experiment: Cell cycle arrest in human MCF7 cells assessed as accumulation at G2/M phase at 10 uM after 24 hrs by propidium iodide staining-based FACS analysis (reference value: 4.80 %); format: functional
# [23] = test system: MCF7; experiment: Cell cycle arrest in human MCF7 cells assessed as accumulation at S phase at 10 uM after 24 hrs by propidium iodide staining-based FACS analysis (reference value: 36.60 %); format: functional
# [24] = test system: MCF7; experiment: Cell cycle arrest in human MCF7 cells assessed as accumulation at G1 phase at 10 uM after 24 hrs by propidium iodide staining-based FACS analysis (reference value: 58.50 %); format: functional
# [25] = test system: MCF7; experiment: Cell cycle arrest in human MCF7 cells assessed as accumulation at G0 phase at 10 uM after 24 hrs by propidium iodide staining-based FACS analysis (reference value: 1.30 %); format: functional
# [26] = target: Serine/threonine-protein kinase B-raf (Homo sapiens) (UniProt P15056); experiment: Inhibition of B-Raf kinase (unknown origin) using [33P]-ATP at 10 uM after 20 to 40 mins by scintillation counting analysis
# Serine/threonine-protein kinase B-raf (Homo sapiens), sequence (P15056 whole entry): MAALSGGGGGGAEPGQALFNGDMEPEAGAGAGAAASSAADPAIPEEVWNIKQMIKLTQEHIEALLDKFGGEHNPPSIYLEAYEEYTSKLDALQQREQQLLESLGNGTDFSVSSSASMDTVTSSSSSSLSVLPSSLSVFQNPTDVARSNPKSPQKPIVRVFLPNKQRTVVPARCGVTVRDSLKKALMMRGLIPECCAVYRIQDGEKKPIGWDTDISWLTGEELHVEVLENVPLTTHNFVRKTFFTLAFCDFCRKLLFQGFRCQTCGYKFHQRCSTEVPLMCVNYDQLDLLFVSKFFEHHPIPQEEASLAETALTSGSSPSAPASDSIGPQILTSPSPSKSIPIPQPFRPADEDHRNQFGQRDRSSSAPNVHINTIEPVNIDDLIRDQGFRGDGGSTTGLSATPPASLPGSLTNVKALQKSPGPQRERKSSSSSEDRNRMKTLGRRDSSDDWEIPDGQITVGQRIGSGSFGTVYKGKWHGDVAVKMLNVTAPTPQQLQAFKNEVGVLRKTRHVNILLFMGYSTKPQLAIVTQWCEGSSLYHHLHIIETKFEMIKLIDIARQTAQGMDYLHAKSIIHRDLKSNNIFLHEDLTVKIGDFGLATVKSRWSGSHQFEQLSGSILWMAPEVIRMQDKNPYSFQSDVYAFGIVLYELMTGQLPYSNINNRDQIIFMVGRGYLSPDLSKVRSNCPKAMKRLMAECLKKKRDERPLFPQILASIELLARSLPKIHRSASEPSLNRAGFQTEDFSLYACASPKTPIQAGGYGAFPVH
# [27] = target: Proto-oncogene tyrosine-protein kinase Src (Homo sapiens) (UniProt P12931); experiment: Inhibition of Src kinase (unknown origin) using [33P]-ATP at 10 uM after 20 to 40 mins by scintillation counting analysis
# Proto-oncogene tyrosine-protein kinase Src (Homo sapiens), sequence (P12931 2-536 limits assumed): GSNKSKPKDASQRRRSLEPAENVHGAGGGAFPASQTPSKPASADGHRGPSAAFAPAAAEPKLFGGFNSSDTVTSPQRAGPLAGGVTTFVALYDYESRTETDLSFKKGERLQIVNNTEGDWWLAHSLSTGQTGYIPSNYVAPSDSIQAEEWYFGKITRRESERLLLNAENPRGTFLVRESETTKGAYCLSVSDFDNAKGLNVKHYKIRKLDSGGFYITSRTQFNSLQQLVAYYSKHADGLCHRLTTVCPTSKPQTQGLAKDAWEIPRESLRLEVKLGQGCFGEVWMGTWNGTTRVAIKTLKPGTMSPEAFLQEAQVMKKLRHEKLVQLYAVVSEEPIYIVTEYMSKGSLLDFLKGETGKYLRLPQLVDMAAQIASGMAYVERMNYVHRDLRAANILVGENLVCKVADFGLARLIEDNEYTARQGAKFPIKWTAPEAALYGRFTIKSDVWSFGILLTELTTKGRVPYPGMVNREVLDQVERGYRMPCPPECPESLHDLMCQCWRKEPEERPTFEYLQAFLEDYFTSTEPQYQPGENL
# [28] = target: Tyrosine-protein kinase ZAP-70 (Homo sapiens) (UniProt P43403); experiment: Inhibition of ZAP-70 kinase (unknown origin) using [33P]-ATP at 10 uM after 20 to 40 mins by scintillation counting analysis
# Tyrosine-protein kinase ZAP-70 (Homo sapiens), sequence (P43403 whole entry): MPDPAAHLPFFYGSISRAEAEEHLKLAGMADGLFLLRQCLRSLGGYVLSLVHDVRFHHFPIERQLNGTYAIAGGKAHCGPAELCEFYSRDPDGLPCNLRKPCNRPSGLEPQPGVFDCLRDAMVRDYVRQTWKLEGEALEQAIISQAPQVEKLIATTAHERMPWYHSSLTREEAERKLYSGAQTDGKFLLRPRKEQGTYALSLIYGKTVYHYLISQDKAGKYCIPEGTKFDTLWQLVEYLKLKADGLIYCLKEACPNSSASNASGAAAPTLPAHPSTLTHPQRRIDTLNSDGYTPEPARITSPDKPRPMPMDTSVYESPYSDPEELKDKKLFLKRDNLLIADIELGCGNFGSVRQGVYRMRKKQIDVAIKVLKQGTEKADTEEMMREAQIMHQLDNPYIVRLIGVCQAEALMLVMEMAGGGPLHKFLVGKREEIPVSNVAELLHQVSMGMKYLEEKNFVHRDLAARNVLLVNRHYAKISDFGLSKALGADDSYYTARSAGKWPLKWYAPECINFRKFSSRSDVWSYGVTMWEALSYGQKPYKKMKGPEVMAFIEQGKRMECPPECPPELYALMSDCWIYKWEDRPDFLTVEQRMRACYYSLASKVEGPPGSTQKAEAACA
# [29] = test system: MDA-MB-468; experiment: Cytotoxicity against human MDA-MB-468 cells after 48 hrs by SRB assay; format: functional; settings: MDA-MB-468, 48 h
# [30] = test system: T47D; experiment: Cytotoxicity against human T47D cells after 48 hrs by SRB assay; format: functional
# [31] = test system: BT-549; experiment: Cytotoxicity against human BT549 cells after 48 hrs by SRB assay; format: functional; settings: BT-549, 48 h, pooled result: one value given for 51 cell lines, strains, targets or settings
# [32] = test system: MCF7; experiment: Cytotoxicity against human MCF7 cells after 48 hrs by SRB assay; format: functional; settings: MCF7, 48 h
# [33] = test system: PC-3; experiment: Cytotoxicity against human PC3 cells after 48 hrs by SRB assay; format: functional; settings: PC-3, 48 h
# [34] = test system: SF-295; experiment: Cytotoxicity against human SF295 cells after 48 hrs by SRB assay; format: functional; settings: SF-295, 48 h
# [35] = test system: NCI-H23; experiment: Cytotoxicity against human NCI-H23 cells after 48 hrs by SRB assay; format: functional; settings: NCI-H23, 48 h
# [36] = test system: RPMI-8226; experiment: Cytotoxicity against human RPMI8226 cells after 48 hrs by SRB assay; format: functional; settings: RPMI-8226, 48 h
# [37] = read-out: LC50 (the source's name)
smiles,measurement,setting,value
Cc1ccc(NC2=NS(=O)(=O)c3ccc(NC(=O)CCC(=O)O)cc32)cc1,logP,[1],1
same,inhibition of growth at 10 µM,[2],-2%
same,inhibition of growth at 10 µM,[3],-8%
same,inhibition of growth at 10 µM,[4],6%
same,inhibition of growth at 10 µM,[5],8%
same,inhibition of growth at 10 µM,[6],-2%
same,inhibition of growth at 10 µM,[7],12%
same,inhibition of growth at 10 µM,[8],-16%
same,inhibition of growth at 10 µM,[9],-4%
same,inhibition of growth at 10 µM,[10],1%
same,inhibition of growth at 10 µM,[11],-1%
same,inhibition of growth at 10 µM,[12],1%
same,inhibition of growth at 10 µM,[13],1%
same,inhibition of growth at 10 µM,[14],1%
same,inhibition of growth at 10 µM,[15],-13%
same,inhibition of growth at 10 µM,[16],-4%
same,inhibition of growth at 10 µM,[17],2%
same,inhibition of growth at 10 µM,[18],1%
same,inhibition of growth at 10 µM,[19],-7%
same,inhibition of growth at 10 µM,[20],7%
same,inhibition of growth at 10 µM,[21],9%
O=C(Nc1ccc(Cl)cc1)Nc1ccc2c(c1)C(Nc1ccc(Cl)cc1Cl)=NS2(=O)=O,Activity,[22],6.4%
same,Activity,[23],15.2%
same,Activity,[24],78.3%
same,Activity,[25],1.4%
same,logP,[1],4.24
same,inhibition,[26],-8%
same,inhibition,[27],58%
same,inhibition,[28],13%
same,GI50,[29],2.75 µM
same,TGI,[29],> 100 µM
same,CC50,[29]; [37],> 100 µM
same,GI50,[30],2.63 µM
same,TGI,[30],> 100 µM
same,CC50,[30]; [37],> 100 µM
same,GI50,[31],5.7 µM
same,GI50,[32],3.6 µM
same,GI50,[33],2.82 µM
same,TGI,[33],> 100 µM
same,CC50,[33]; [37],> 100 µM
same,GI50,[34],2.88 µM
same,TGI,[34],> 100 µM
same,CC50,[34]; [37],> 100 µM
same,GI50,[35],2.69 µM
same,TGI,[35],12.3 µM
same,CC50,[35]; [37],> 100 µM
same,GI50,[36],2.19 µM
same,TGI,[36],15.5 µM
same,CC50,[36]; [37],> 100 µM
same,inhibition of growth at 10 µM,[2],9%
same,inhibition of growth at 10 µM,[3],49%
same,inhibition of growth at 10 µM,[4],43%
same,inhibition of growth at 10 µM,[5],79%
same,inhibition of growth at 10 µM,[6],82%
same,inhibition of growth at 10 µM,[7],70%
same,inhibition of growth at 10 µM,[8],57%
same,inhibition of growth at 10 µM,[9],15%
same,inhibition of growth at 10 µM,[10],83%
same,inhibition of growth at 10 µM,[11],58%
same,inhibition of growth at 10 µM,[12],72%
same,inhibition of growth at 10 µM,[13],42%
same,inhibition of growth at 10 µM,[14],96%
same,inhibition of growth at 10 µM,[15],80%
same,inhibition of growth at 10 µM,[16],72%
same,inhibition of growth at 10 µM,[17],27%
same,inhibition of growth at 10 µM,[18],92%
same,inhibition of growth at 10 µM,[19],69%
same,inhibition of growth at 10 µM,[20],98%
same,inhibition of growth at 10 µM,[21],74%
O=C(Nc1ccccc1)Nc1ccc(NC2=NS(=O)(=O)c3ccccc32)cc1,logP,[1],2.23
same,inhibition of growth at 10 µM,[2],-9%
same,inhibition of growth at 10 µM,[3],3%
same,inhibition of growth at 10 µM,[4],11%
same,inhibition of growth at 10 µM,[5],10%
same,inhibition of growth at 10 µM,[6],-3%
same,inhibition of growth at 10 µM,[7],7%
same,inhibition of growth at 10 µM,[8],-12%
same,inhibition of growth at 10 µM,[9],-6%
same,inhibition of growth at 10 µM,[10],2%
same,inhibition of growth at 10 µM,[11],-1%
same,inhibition of growth at 10 µM,[12],2%
same,inhibition of growth at 10 µM,[13],5%
same,inhibition of growth at 10 µM,[14],1%
same,inhibition of growth at 10 µM,[15],-6%
same,inhibition of growth at 10 µM,[16],-7%
same,inhibition of growth at 10 µM,[17],-8%
same,inhibition of growth at 10 µM,[18],3%
same,inhibition of growth at 10 µM,[19],3%
same,inhibition of growth at 10 µM,[20],-2%
same,inhibition of growth at 10 µM,[21],5%
O=C(Nc1ccc(NC2=NS(=O)(=O)c3ccccc32)cc1)Nc1cccc(Br)c1,logP,[1],2.24
same,inhibition of growth at 10 µM,[2],35%
same,inhibition of growth at 10 µM,[3],23%
same,inhibition of growth at 10 µM,[4],47%
same,inhibition of growth at 10 µM,[5],44%
same,inhibition of growth at 10 µM,[6],16%
same,inhibition of growth at 10 µM,[7],13%
same,inhibition of growth at 10 µM,[8],-2%
same,inhibition of growth at 10 µM,[9],35%
same,inhibition of growth at 10 µM,[10],5%
same,inhibition of growth at 10 µM,[11],17%
same,inhibition of growth at 10 µM,[12],23%
same,inhibition of growth at 10 µM,[13],36%
same,inhibition of growth at 10 µM,[14],20%
same,inhibition of growth at 10 µM,[15],88%
same,inhibition of growth at 10 µM,[16],5%
same,inhibition of growth at 10 µM,[17],29%
same,inhibition of growth at 10 µM,[18],14%
same,inhibition of growth at 10 µM,[19],4%
same,inhibition of growth at 10 µM,[20],8%
same,inhibition of growth at 10 µM,[21],1%
